# Reference: US20070270475A1, “4-Methoxy-Pyrrolidine-2-Carboxylic Acid Compounds and Derivatives Thereof as Hepatitis C Virus Inhibitors” (priority 2004, published 2007)
# Target: T1, HCV RNA Polymerase, recombinant NS5B with C-terminal 21 amino acid deletion, genotype 1a (strain H77) (Hepatitis C virus genotype 1a, UniProt P27958)
# T1 construct: fused on or other part: C-terminal 6His-tag
# Test: In vitro HCV RNA-dependent RNA polymerase inhibition assay, genotype 1a C-terminally truncated (delta21) enzyme
# Assay type: biochemical, HCV genotype 1a
# Settings: genotype 1a NS5B delta21, 25 nM enzyme; read-out: IC50 in delta-21 1a enzyme inhibition assay
# Excerpt: In Vitro Detection of inhibitors of HCV RNA-Dependent RNA Polymerase Activity
# Incorporation of [^33P]-GMP into RNA was followed by absorption of the biotin labelled RNA polymer by streptavidin containing SPA beads. A synthetic template consisting of biotinylated 13mer-oligoG hybridised to polyrC was used as a homopolymer substrate.
# a) Genotype 1a C-Terminally Truncated (delta21) Enzyme
# HCV RNA Polymerase [Recombinant NS5B with C-terminal 21 amino acid deletion and C-terminal 6His-tag (Ferrari et al. J. Virol. 73(2), 1999, 1649. ‘Characterization of soluble hepatitis C virus RNA-dependent RNA polymerase expressed in Escherichia coli.’) expressed in E. coli and purified to homogeneity] was added to 25 nM final concentration. Polymerase of genotype la was from strain H77 (Yanagi, M., Purcell, R. H., Emerson, S. U. & Bukh, J. (1997), Proceedings of the National Academy of Sciences, USA 94, 8738-8743) containing a sequence change from valine to isoleucine at position 180.
# Reaction Conditions were 25 nM enzyme, 1.5 μg/ml oligo-rG13/poly-rC and 0.2 μCi α-^33P-GTP in 0.5 μM GTP (20 Ci/mMol) , 20 mM Tris pH 7.5, 23 mM NaCl, 3 mM DTT, 5 mM MgCl2, 1 mM MnCl2.
# Enzyme was diluted to 500 nM concentration in 20 mM Tris-HCl, pH 7.5, 25 mM NaCl and 3 mM DTT.
# 4× concentrated assay buffer mix was prepared using 1M Tris-HCl, pH7.5 (1 mL), 5M NaCl (0.25 mL), 1M DTT (0.12 mL) and Water (8.63 mL), Total 10 mL.
# 2× concentrated first reagent was prepared using 4× concentrated assay buffer mix (5 μL), 40 μ/μL RNasin (0.1 μL), 20 μg/mL polyrC/biotinylated-oligorG (1.6 μL), 500 nM enzyme (1 μL ) and Water (2.3 μL), Total 10 μL/well.
# 2× concentrated second reagent was prepared using 1 M MgCl2 ([…]), 1M MnCl2 (0.02 μL), 25 μM GTP (0.4 μL), α-[^33P]-GTP (10 μCi/μL, 0.02 μL) and water (9.5 μL), Total 10 μL/well.
# The assay was set up using compound (1 μL in 100% DMSO), first reagent (10 μL), and second reagent (10 μL), Total 21 μL.
# The reaction was performed in a U-bottomed, white, 96-well plate. The reaction was mixed on a plate-shaker, after addition of the Enzyme, and incubated for 1 h at 22° C. After this time, the reaction was stopped by addition of 60 μL 1.5 mg/ml streptavidin SPA beads (Amersham) in 0.1 M EDTA in PBS. The beads were incubated with the reaction mixture for 1 h at 22° C. after which 100 μL 0.1 M EDTA in PBS was added. The plate was sealed, mixed centrifuged and incorporated radioactivity determined by counting in a Trilux (Wallac) or Topcount (Packard) Scintillation Counter.
# After subtraction of background levels without enzyme, any reduction in the amount of radioactivity incorporated in the presence of a compound, compared to that in the absence, was taken as a measure of the level of inhibition. Ten concentrations of compounds were tested in three- or fivefold dilutions. From the counts per minute, percentage of inhibition at highest concentration tested or IC50s for the compounds were calculated using GraFit 3, GraFit 4 or GraFit 5 (Erithacus Software Ltd.) software packages or a data evaluation macro for Excel based on XLFit software (IDBS).
# T1 sequence (P27958 2601-2990 limits assumed, stated change not applied): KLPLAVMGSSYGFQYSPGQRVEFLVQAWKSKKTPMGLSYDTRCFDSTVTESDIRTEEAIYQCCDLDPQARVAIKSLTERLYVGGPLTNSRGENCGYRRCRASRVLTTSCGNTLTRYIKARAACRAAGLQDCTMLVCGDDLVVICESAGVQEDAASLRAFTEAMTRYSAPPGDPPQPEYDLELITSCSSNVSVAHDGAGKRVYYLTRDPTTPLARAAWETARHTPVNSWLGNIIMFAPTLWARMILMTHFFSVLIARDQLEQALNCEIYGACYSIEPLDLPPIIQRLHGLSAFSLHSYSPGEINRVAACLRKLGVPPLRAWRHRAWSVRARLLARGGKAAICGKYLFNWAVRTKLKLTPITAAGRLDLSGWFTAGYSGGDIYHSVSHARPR
row,Structure (SMILES),IC50 [nM]
1,"COC[C@H]1C[C@@](Cc2ccsn2)(C(=O)O)N(C(=O)c2ccc(C(C)(C)C)c(OC)c2)[C@H]1c1nccs1 (single isomer, unassigned; enantiomer a) [Example 5]",< 750
2,"COC[C@H]1C[C@@](Cn2cccn2)(C(=O)O)N(C(=O)c2ccc(C(C)(C)C)c(OC)c2)[C@H]1c1nccs1 (single isomer, unassigned) [Example 7]",< 750
3,"COC[C@H]1C[C@@](Cc2cscn2)(C(=O)O)N(C(=O)c2ccc(C(C)(C)C)c(OC)c2)[C@H]1c1nccs1 (single isomer, unassigned; enantiomer a) [Example 12]",< 750
4,"COC[C@H]1C[C@@](Cc2cscn2)(C(=O)O)N(C(=O)c2ccc(C(C)(C)C)c(OC)c2)[C@H]1c1nccs1 (racemic) [Example 3, rel-(2R,4S,5R)-1-(3-Methoxy-4-tert-butylbenzoyl)-4-(methoxymethyl)-5-(1,3-thiazol-2-yl)-2-(1,3-thiazol-4-ylmethyl)pyrrolidine-2-carboxylic acid]",< 750
5,"COC[C@H]1C[C@@](Cn2cccn2)(C(=O)O)N(C(=O)c2ccc(C(C)(C)C)c(OC)c2)[C@H]1c1ncc(C)s1 (single isomer, unassigned; enantiomer a) [Example 11]",< 750
6,"COC[C@H]1C[C@@](Cc2ccsn2)(C(=O)O)N(C(=O)c2ccc(C(C)(C)C)c(OC)c2)[C@H]1c1nccs1 (racemic) [Example 4, rel-(2R,4S,5R)-1-(3-Methoxy-4-tert-butylbenzoyl)-4-(methoxymethyl)-5-(1,3-thiazol-2-yl)-2-(1,2-thiazol-3-ylmethyl)pyrrolidine-2-carboxylic acid]",< 750
7,"COC[C@H]1C[C@@](Cn2cccn2)(C(=O)O)N(C(=O)c2ccc(C(C)(C)C)c(OC)c2)[C@H]1c1nccs1 (racemic) [Example 6, rel-(2R,4S,5R)-1-(3-Methoxy-4-tert-butylbenzoyl)-4-(methoxymethyl)-2-(1H-pyrazol-1-ylmethyl)-5-(1,3-thiazol-2-yl)pyrrolidine-2-carboxylic acid]",< 750
8,"COC[C@H]1C[C@@](Cc2nccs2)(C(=O)O)N(C(=O)c2ccc(C(C)(C)C)c(OC)c2)[C@H]1c1ncc(C)s1 (racemic) [Example 8, rel-(2R,4S,5R)-1-(3-Methoxy-4-tert-butylbenzoyl)-4-(methoxymethyl)-5-(5-methyl-1,3-thiazol-2-yl)-2-(1,3-thiazol-2-ylmethyl)pyrrolidine-2-carboxylic acid]",< 750
9,"COC[C@H]1C[C@@](CC(C)C)(C(=O)O)N(C(=O)c2ccc(C(C)(C)C)c(OC)c2)[C@H]1c1nccs1 (racemic) [Compound A, rel-(2S,4S,5R)-2-isobutyl-1-(3-methoxy-4-tert-butylbenzoyl)-4-methoxymethyl-5-(1,3-thiazol-2-yl)pyrrolidine-2-carboxylic acid, reference compound]",> 1000
10,"COC[C@H]1C[C@@](Cc2ccccc2)(C(=O)O)N(C(=O)c2ccc(C(C)(C)C)c(OC)c2)[C@H]1c1nccs1 (racemic) [Compound E, rel-(2R,4S,5R)-2-benzyl-1-(3-methoxy-4-tert-butylbenzoyl)-4-methoxymethyl-5-(1,3-thiazol-2-yl)-pyrrolidine-2-carboxylic acid, reference compound]",> 1000
11,"COC[C@H]1C[C@@](Cc2ccsn2)(C(=O)O)N(C(=O)c2ccc(C(C)(C)C)c(OC)c2)[C@H]1c1ncc(C)s1 (racemic) [Example 9, rel-(2R,4S,5R)-1-(3-Methoxy-4-tert-butylbenzoyl)-4-(methoxymethyl)-5-(5-methyl-1,3-thiazol-2-yl)-2-(1,2-thiazol-3-ylmethyl)pyrrolidine-2-carboxylic acid]",< 750
12,"COC[C@H]1C[C@@](CC(C)C)(C(=O)O)N(C(=O)c2ccc(C(C)(C)C)c(OC)c2)[C@H]1c1nccs1 [Compound B, (2S,4S,5R)-2-isobutyl-1-(3-methoxy-4-tert-butylbenzoyl)-4-methoxymethyl-5-(1,3-thiazol-2-yl)pyrrolidine-2-carboxylic acid, reference compound]",> 1000
13,"COC[C@H]1C[C@@](CC(C)C)(C(=O)O)N(C(=O)c2ccc(C(C)(C)C)c(OC)c2)[C@H]1c1ncc(C)s1 (racemic) [Compound C, rel-(2S,4S,5R)-2-isobutyl-1-(3-methoxy-4-tert-butylbenzoyl)-4-methoxymethyl-5-(5-methyl-1,3-thiazol-2-yl)pyrrolidine-2-carboxylic acid, reference compound]",> 1000
14,"COC[C@H]1C[C@@](Cc2cscn2)(C(=O)O)N(C(=O)c2ccc(C(C)(C)C)c(OC)c2)[C@H]1c1ncc(C)s1 (single isomer, unassigned; enantiomer a) [Example 2]",< 750
15,"COC[C@H]1C[C@@](Cn2cccn2)(C(=O)O)N(C(=O)c2ccc(C(C)(C)C)c(OC)c2)[C@H]1c1ncc(C)s1 (racemic) [Example 10, rel-(2R,4S,5R)-1-(3-Methoxy-4-tert-butylbenzoyl)-4-(methoxymethyl)-5-(5-methyl-1,3-thiazol-2-yl)-2-(1H-pyrazol-1-ylmethyl)pyrrolidine-2-carboxylic acid]",< 750
16,"COC[C@H]1C[C@@](Cc2cscn2)(C(=O)O)N(C(=O)c2ccc(C(C)(C)C)c(OC)c2)[C@H]1c1ncc(C)s1 (racemic) [Example 1, rel-(2R,4S,5R)-1-(3-Methoxy-4-tert-butylbenzoyl)-4-(methoxymethyl)-5-(5-methyl-1,3-thiazol-2-yl)-2-(1,3-thiazol-4-ylmethyl)pyrrolidine-2-carboxylic acid]",< 750
17,"COCC1CC(CC(C)C)(C(=O)O)N(C(=O)c2ccc(C(C)(C)C)c(OC)c2)C1c1ncc(C)s1 (single isomer, unassigned; enantiomer a) [Compound D, reference compound]",750 to 1000
